# Values of other authors as cited in patent publication US20020119970A1, “Method for treating glaucoma IIB” (priority 2000, published 2002).
# Tests used:
# Rhesus monkeys = settings: accommodative responses to i.m. pilocarpine; result referred to co-filed application "Methods for Treating Glaucoma I"
# Aged Rhesus monkeys = settings: drug treated vs. control eye; baseline and pilocarpine-stimulated conditions; result referred to co-filed application "Methods for Treating Glaucoma I"
smiles,measurement,setting,value
"Cc1sc[n+](CC(=O)c2ccccc2)c1C.[Cl-] [4,5-dimethyl-3-(2-oxoethyl-phenethyl)thiazolium chloride]",Improvement in accommodation,Rhesus monkeys,Improvement in accommodation has been illustrated
same,improvement in ophthalmologic function (fluid outflow facility),Aged Rhesus monkeys,improvement has been illustrated
